The values below come from publication PMC5814047, “Peptidic inhibitors of insulin-degrading enzyme with potential for dermatological applications discovered via phage display” (PLoS ONE, 2018).

As usually defined, the inhibition is the relative decrease from the control value, in per cent.

The target of one assay is T1, MMP-7 (Homo sapiens, UniProt P09237).
T1 construct: purchased Enzo Life Sciences, Inc
T1 sequence (P09237 95-267): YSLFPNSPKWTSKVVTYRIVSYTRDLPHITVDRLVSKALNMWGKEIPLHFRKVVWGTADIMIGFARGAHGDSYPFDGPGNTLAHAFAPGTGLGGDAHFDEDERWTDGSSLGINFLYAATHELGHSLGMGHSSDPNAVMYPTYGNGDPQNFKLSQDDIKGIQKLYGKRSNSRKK
Nature of the assay: MMP Inhibitor Profiling Kit, MMP-7. It counts as biochemical. Conditions: P12-3A 100 μM. The procedure: (§1) IDE activity was quantified by monitoring the degradation of Mca-[…](Dnp) (FRET1, 5 μM), fluoresceinated and biotinylated amyloid ß-protein (FAßB; 500 nM) or recombinant human insulin (50 nM) in PBS supplemented with 0.05% BSA. FRET1 degradation was measured by changes in fluorescence (λex = 340 nm, λem = 420 nm); FAßB degradation was monitored by fluorescence polarization (λex = 488 nm, λem = 525 nm), as described; and insulin degradation was quantified by ELISA. In vitro activity assays incorporated recombinant human IDE (1 nM) purified from bacteria. For quantitation of insulin degradation in primary murine skin fibroblasts, cells (1 x 10^5/well) were plated in 96-well plates and maintained in DMEM supplemented with 10% fetal bovine serum (FBS), 2mM glutamine, penicillin and streptomycin. After addition of insulin (10 nM or 100 nM), samples of conditioned medium were removed daily and quickly frozen, then insulin levels were quantified in parallel by ELISA according to manufacturer’s recommendations (Crystal Chem, Downers Grove, IL, USA). Assessment of the activity of P12-3A against a variety of matrix-metalloproteases was conducted using the Matrix Metalloproteinase (MMP) Inhibitor Profiling Kit, Fluorometric RED (Enzo Life Sciences, Inc., Farmingdale, NY, USA) according to manufacturer’s recommendations using the broad-spectrum MMP inhibitor, NNGH, as a positive control. […]

In a further assay the test system is 15 different proteases. The assay is described as follows: Selectivity against 15 different proteases (S4 Fig). It counts as biochemical. Conditions: P12-3A 100 μM. As to the method: Taken together with the potency of all peptides against insulin (Table 1), we concluded that P12-3A represented the best inhibitor for further studies, and a highly purified, deliberately cyclized version (Fig 3A) was synthesized. […] Based on its potency, stability and selectivity for IDE, P12-3A was selected for use in downstream assays.
as §1, with “USA).” for “USA). Assessment of the activity of P12-3A against a variety of matrix-metalloproteases was conducted using the Matrix Metalloproteinase (MMP) Inhibitor Profiling Kit, Fluorometric RED (Enzo Life Sciences, Inc., Farmingdale, NY, USA) according to manufacturer’s recommendations using the broad-spectrum MMP inhibitor, NNGH, as a positive control.”

Bridge positions count the residues as written; N and C are the ends. Peptide text beside a SMILES is read from it.

Regarding `CC(C)C[C@H](NC(=O)[C@H](CO)NC(=O)[C@@H](N)CCC(N)=O)C(=O)N1CCC[C@H]1C(=O)N[C@@H](Cc1c[nH]c2ccccc12)C(=O)N[C@H]1CSSC[C@@H](C(=O)N[C@H](C(=O)N[C@H](C(N)=O)[C@@H](C)O)C(C)C)NC(=O)[C@H](Cc2c[nH]cn2)NC(=O)[C@@H]2CCCN2C(=O)[C@H](Cc2ccc(O)cc2)NC1=O` [P12-3A] (H-QSLPWCYPHCVT-NH2; disulfide 6-10 (inferred)), on MMP-7, the inhibition at 100 µM is roughly 18%. For the same compound, in the assay on 15 different proteases, the “inhibition against 15 different proteases” value was “essentially no inhibition”.
